Source: patent US20200190062A1, “HETEROCYCLIC COMPOUND AND PHARMACEUTICAL COMPOSITION COMPRISING SAME” (BEYONDBIO INC., priority 2015, published 2020)
Counter-ions that a name gives are not always drawn. Values belong to the compound of their own block, whether it stands above or below them.

Tests used:
Test in all cases: Inhibition of cancer cell proliferation (MTT)
Assay type in all cases: cell-based, human
[1] = system: A549
Procedure: (§1) A test was conducted to confirm whether the compounds obtained in the above Examples can inhibit proliferation of human colon carcinoma cell line HCT116, glioblastoma cell lines U-87MG and T98G, neuroblastoma cell lines SH-SYSY and SK-N-SH, and lung cancer cell lines A549 and NCI-H23.
(§2) HCT116, U-87MG, SH-SYSY, SK-N-SH and A549 cells were culured in DMEM medium containing 10% FBS. T98G cells were cultured in MEM medium containing 10% FBS and NCI-H23 cells were cultured in […] medium containing 10% FBS. In order to analyze an inhibition of proliferation, HCT116 cells were dispensed in 2000 cells/well into 96 well plate, and SH-SYSY, SK-N-SH, U-87MG, T98G, A549, and NCI-H23 cells were dispensed in 3000 cells/well into 96 well plate. And then, the cells were cultured at 5% CO2 and 37° C. for 16 hrs to allow the cells to attach to the wells. The compounds of the above Examples were added to each well at a concentration of 0.004, 0.013, 0.04, 0.12, 0.37, 1.1, 3.3, and 10 uM, and the culture volume was adjusted to 100 ul. A control group was treated with dimethylsulfoxide (DMSO) at the same concentration, 0.08%, as used to treat the test compounds. Afterwards, cells were cultured at 5% CO2 and 37° C. for 72 hrs. And then, 10 ul of the solution of MTT (3-(4,5-dimethylthiazol-2-yl)-2,5-diphenyltetrazolium bromide) dissolved in PBS at 5 mg/ml was added to each well to identify viable cells and the cells were cultured for further 2 hrs. The culture solution was removed, 100 ul of DMSO was added to dissolve the formed formazan and then an absorbance was measured at 535 nm. Based on the absorbance of the control cells not treated with the compounds, the amounts of the viable cells according to the concentration of the compounds were calculated. GI50 (growth inhibition 50) value which is the concentration of the compound to inhibit cancer cell proliferation by 50% was calculated using Graphpad Prism 5.0 program.

[2] = system: HCT116
Procedure: as §1, §2

[3] = system: NCI-H23
Procedure: as §1, §2

[4] = system: T98G
Procedure: as §1, §2

[5] = system: U-87MG
Procedure: as §1, §2

- GI50 ([1]; Homo sapiens, A549, 72 h): 120 nM
- GI50 ([2]; Homo sapiens, HCT-116, 72 h): 50 nM
- GI50 ([3]; Homo sapiens, NCI-H23, 72 h): 220 nM
- GI50 ([4]; Homo sapiens, T98G, 72 h): 260 nM
- GI50 ([5]; Homo sapiens, U-87 MG, 72 h): 220 nM
Structure (SMILES): Cc1nc(N)nc(-c2nc(-c3ccnc(N)c3F)ccc2O)c1C [Example 60, 2′-amino-6-(2-amino-5,6-dimethylpyrimidin-4-yl)-3′-fluoro-[2,4′-bipyridin]-5-ol]

- GI50 ([2]; 72 hrs, oxalate): 190 nM
Structure (SMILES): Nc1nccc(-c2ccc(O)c(-c3ccnc(N)n3)n2)n1 [Example 62, 2,6-bis(2-aminopyrimidin-4-yl)pyridin-3-ol oxalate]

- GI50 ([2]; 72 hrs, oxalate): 40 nM
Structure (SMILES): CN1CCC(c2cc(-c3nc(-c4ccnc(N)c4F)ccc3O)nc(N)n2)CC1 [Example 79, 2′-amino-6-(2-amino-6-(1-methylpiperidin-4-yl)pyrimidin-4-yl)-3′-fluoro-[2,4′-bipyridin]-5-ol oxalate]

- GI50 ([1]; 72 hrs): 400 nM
- GI50 ([2]; 72 hrs): 170 nM
- GI50 ([3]; 72 hrs): 1790 nM
- GI50 ([4]; 72 hrs): 690 nM
- GI50 ([5]; 72 hrs): 390 nM
Structure (SMILES): CCN1CCCC(c2cc(-c3nc(-c4ccnc(N)c4F)ccc3O)nc(N)n2)C1 (stereo not drawn) [Example 39, 2′-amino-6-(2-amino-6-(1-ethylpiperidin-3-yl)pyrimidin-4-yl)-3′-fluoro-[2,4′-bipyridin]-5-ol]

- GI50 ([1]; 72 hrs): 40 nM
- GI50 ([2]; Homo sapiens, HCT-116, 72 h): 20 nM
- GI50 ([3]; Homo sapiens, NCI-H23, 72 h): 40 nM
- GI50 ([4]; 72 hrs): 60 nM
- GI50 ([5]; Homo sapiens, U-87 MG, 72 h): 20 nM
Structure (SMILES): CCCc1cnc(N)nc1-c1nc(-c2ccnc(N)c2F)ccc1O [Example 57, 2′-amino-6-(2-amino-5-propylpyrimidin-4-yl)-3′-fluoro-[2,4′-bipyridin]-5-ol]

- GI50 ([1]; 72 hrs): 120 nM
- GI50 ([2]; 72 hrs): 60 nM
- GI50 ([3]; 72 hrs): 230 nM
- GI50 ([4]; 72 hrs): 290 nM
- GI50 ([5]; 72 hrs): 230 nM
Structure (SMILES): Cc1nc(N)nc(-c2nc(-c3ccnc(N)c3F)ccc2O)c1C [Example 101, 2′-amino-6-(2-amino-5,6-dimethylpyrimidin-4-yl)-3′-fluoro-[2,4′-bipyridin]-5-ol 3hydrochloride]

- GI50 ([2]; Homo sapiens, HCT-116, 72 h): 1180 nM
Structure (SMILES): Cc1cc(-c2nc(-c3ccncc3F)ccc2O)nc(N)n1 [Example 26, 6-(2-amino-6-methylpyrimidin-4-yl)-3′-fluoro-[2,4′-bipyridin]-5-ol]

- GI50 ([2]; 72 hrs): 40 nM
Structure (SMILES): CN1CCC(c2cc(-c3nc(-c4ccnc(N)c4F)ccc3O)nc(N)n2)CC1 [Example 78, 2′-amino-6-(2-amino-6-(1-methylpiperidin-4-yl)pyrimidin-4-yl)-3′-fluoro-[2,4′-bipyridin]-5-ol 2acetate]

- GI50 ([1]; Homo sapiens, A549, 72 h): 1440 nM
- GI50 ([2]; Homo sapiens, HCT-116, 72 h): 810 nM
- GI50 ([3]; Homo sapiens, NCI-H23, 72 h): 2230 nM
- GI50 ([4]; Homo sapiens, T98G, 72 h): 1410 nM
- GI50 ([5]; Homo sapiens, U-87 MG, 72 h): 1090 nM
Structure (SMILES): CCCN1CCCC(c2nc(N)nc(-c3nc(-c4ccnc(N)c4F)ccc3O)c2C)C1 (stereo not drawn) [Example 47, 2′-amino-6-(2-amino-5-methyl-6-(1-propylpiperidin-3-yl)pyrimidin-4-yl)-3′-fluoro-[2,4′-bipyridin]-5-ol]

- GI50 ([1]; Homo sapiens, A549, 72 h): 50 nM
- GI50 ([2]; Homo sapiens, HCT-116, 72 h): 20 nM
- GI50 ([3]; Homo sapiens, NCI-H23, 72 h): 70 nM
- GI50 ([4]; Homo sapiens, T98G, 72 h): 50 nM
- GI50 ([5]; Homo sapiens, U-87 MG, 72 h): 30 nM
Structure (SMILES): CCc1c(-c2nc(-c3ccnc(N)c3F)ccc2O)nc(N)nc1C1CCN(C(C)C)CC1 [Example 49, 2′-amino-6-(2-amino-5-ethyl-6-(1-isopropylpiperidin-4-yl)pyrimidin-4-yl)-3′-fluoro-[2,4′-bipyridin]-5-ol]

- GI50 ([2]; 72 hrs): 2030 nM
- GI50 ([4]; Homo sapiens, T98G, 72 h): 3790 nM
- GI50 ([5]; 72 hrs): 2570 nM
Structure (SMILES): Cc1c(-c2nc(-c3ccnc(N)c3F)ccc2O)nc(N)nc1C1CCCN(C(C)C)C1 (stereo not drawn) [Example 99, 2′-amino-6-(2-amino-6-(1-isopropylpiperidin-3-yl)-5-methylpyrimidin-4-yl)-3′-fluoro-[2,4′-bipyridin]-5-ol 4hydrochloride]

- GI50 ([2]; Homo sapiens, HCT-116, 72 h): 2300 nM
Structure (SMILES): Nc1nccc(-c2cnc(O)c(-c3ccnc(N)n3)c2)n1 [Example 6, 3,5-bis(2-aminopyrimidin-4-yl)pyridin-2-ol]

- GI50 ([1]; 72 hrs): 100 nM
- GI50 ([2]; 72 hrs): 70 nM
- GI50 ([3]; 72 hrs): 230 nM
- GI50 ([4]; 72 hrs): 100 nM
- GI50 ([5]; 72 hrs): 110 nM
Structure (SMILES): Cc1c(-c2nc(-c3ccnc(N)c3F)ccc2O)nc(N)nc1C1CCN(C)CC1 [Example 93, 2′-amino-6-(2-amino-5-methyl-6-(1-methylpiperidin-4-yl)pyrimidin-4-yl)-3′-fluoro-[2,4′-bipyridin]-5-ol 4hydrochloride]

- GI50 ([1]; Homo sapiens, A549, 72 h): 210 nM
- GI50 ([2]; Homo sapiens, HCT-116, 72 h): 140 nM
- GI50 ([3]; Homo sapiens, NCI-H23, 72 h): 410 nM
- GI50 ([4]; Homo sapiens, T98G, 72 h): 250 nM
- GI50 ([5]; Homo sapiens, U-87 MG, 72 h): 150 nM
Structure (SMILES): Cc1c(-c2nc(-c3ccnc(N)c3F)ccc2O)nc(N)nc1C1CCCN(C)C1 (stereo not drawn) [Example 46]

- GI50 ([1]; 72 hrs): 170 nM
- GI50 ([2]; 72 hrs): 20 nM
- GI50 ([3]; 72 hrs): 90 nM
Structure (SMILES): CC(C)c1cc(-c2nc(-c3ccnc(N)c3F)ccc2O)nc(N)n1 [Example 82, 2′-amino-6-(2-amino-6-isopropylpyrimidin-4-yl)-3′-fluoro-[2,4′-bipyridin]-5-ol 2acetate]

- GI50 ([2]; 72 hrs): 190 nM
Structure (SMILES): Nc1nccc(-c2ccc(O)c(-c3ccnc(N)n3)n2)n1 [Example 63, 2,6-bis(2-aminopyrimidin-4-yl)pyridin-3-ol malonate]

- GI50 ([2]; Homo sapiens, HCT-116, 72 h): 290 nM
Structure (SMILES): Cc1cc(-c2nc(-c3ccncc3)ccc2O)nc(N)n1 [Example 25, 6-(2-amino-6-methylpyrimidin-4-yl)-[2,4′-bipyridin]-5-ol]

- GI50 ([2]; Homo sapiens, HCT-116, 72 h): 3590 nM
Structure (SMILES): Nc1cc(-c2ncc(O)c(-c3ccnc(N)n3)n2)ccn1 [Example 5, 2′-amino-2-(2-aminopyridin-4-yl)-[4,4′-bipyrimidin]-5-ol]

- GI50 ([1]; 72 hrs): 10 nM
- GI50 ([3]; 72 hrs): 20 nM
- GI50 ([4]; 72 hrs): 20 nM
Structure (SMILES): CN1CCCC(c2cc(-c3nc(-c4ccnc(N)c4F)ccc3O)nc(N)n2)C1 (stereo not drawn) [Example 89, 2′-amino-6-(2-amino-6-(1-methylpiperidin-3-yl)pyrimidin-4-yl)-3′-fluoro-[2,4′-bipyridin]-5-ol 4hydrochloride]

- GI50 ([1]; 72 hrs): 140 nM
- GI50 ([2]; 72 hrs): 20 nM
- GI50 ([3]; 72 hrs): 70 nM
Structure (SMILES): CC(C)c1cc(-c2nc(-c3ccnc(N)c3F)ccc2O)nc(N)n1 [Example 81, 2′-amino-6-(2-amino-6-isopropylpyrimidin-4-yl)-3′-fluoro-[2,4′-bipyridin]-5-ol 3hydrochloride]

- GI50 ([2]; 72 hrs): 190 nM
Structure (SMILES): Nc1nccc(-c2ccc(O)c(-c3ccnc(N)n3)n2)n1 [Example 64, 2,6-bis(2-aminopyrimidin-4-yl)pyridin-3-ol sulfate]

- GI50 ([2]; Homo sapiens, HCT-116, 72 h): 290 nM
Structure (SMILES): Cc1cc(-c2nc(-c3ccc(O)cc3)ccc2O)nc(N)n1 [Example 27, 2-(2-amino-6-methylpyrimidin-4-yl)-6-(4-hydroxyphenyl)pyridin-3-ol]

- GI50 ([2]; Homo sapiens, HCT-116, 72 h): 6080 nM
Structure (SMILES): Nc1nccc(-c2nc(-c3cccnc3)ccc2O)n1 [Example 11, 6-(2-aminopyrimidin-4-yl)-[2,3′-bipyridin]-5-ol]

- GI50 ([2]; Homo sapiens, HCT-116, 72 h): 670 nM
Structure (SMILES): Nc1cccc(-c2nc(-c3ccnc(N)n3)ccc2O)n1 [Example 7, 6′-amino-6-(2-aminopyrimidin-4-yl)-[2,2′-bipyridin]-3-ol]

- GI50 ([2]; Homo sapiens, HCT-116, 72 h): 720 nM
Structure (SMILES): Cc1cc(-c2nc(-c3cccc(N)c3)ccc2O)nc(N)n1 [Example 30, 2-(2-amino-6-methylpyrimidin-4-yl)-6-(3-aminophenyl)pyridin-3-ol]

- GI50 ([2]; Homo sapiens, HCT-116, 72 h): 1260 nM
Structure (SMILES): Cc1cc(-c2nc(-c3ccc(O)cc3F)ccc2O)nc(N)n1 [Example 29, 2-(2-amino-6-methylpyrimidin-4-yl)-6-(2-fluoro-4-hydroxyphenyl)pyridin-3-ol]

- GI50 ([2]; Homo sapiens, HCT-116, 72 h): 2910 nM
- GI50 ([5]; Homo sapiens, U-87 MG, 72 h): 3820 nM
Structure (SMILES): Cc1c(-c2nc(-c3ccnc(N)c3F)ccc2O)nc(N)nc1C1CCCN(C(C)C)C1 (stereo not drawn) [Example 48, 2′-amino-6-(2-amino-6-(1-isopropylpiperidin-3-yl)-5-methylpyrimidin-4-yl)-3′-fluoro-[2,4′-bipyridin]-5-ol]

- GI50 ([2]; 72 hrs): 140 nM
Structure (SMILES): CN1CCC(c2cc(-c3nc(-c4ccnc(N)c4F)ccc3O)nc(N)n2)CC1 [Example 80, 2′-amino-6-(2-amino-6-(1-methylpiperidin-4-yl)pyrimidin-4-yl)-3′-fluoro-[2,4′-bipyridin]-5-ol malonate]
